# Values of other authors as cited in US20230190776A1, “ENCAPSULATION OF BIOACTIVE INGREDIENTS BY MULTIPLEX EMULSION” (The Board of Regents of the University of Texas System, priority 2021, published 2023).
# Conditions: up to 14 weeks of administrations; species not given
structure (smiles),measurement,value
O=C1CCC[C@@H]2[C@H]3CCC[N+]4([O-])CCC[C@@H](CN12)[C@@H]34 (stereo partly shown) [Oxymatrine],lethal dose,around 300 mg/kg
